Assay [1] concerns the target T1, Paired amphipathic helix protein Sin3b (Mus musculus) (UniProt Q62141).
T1 sequence (whole entry): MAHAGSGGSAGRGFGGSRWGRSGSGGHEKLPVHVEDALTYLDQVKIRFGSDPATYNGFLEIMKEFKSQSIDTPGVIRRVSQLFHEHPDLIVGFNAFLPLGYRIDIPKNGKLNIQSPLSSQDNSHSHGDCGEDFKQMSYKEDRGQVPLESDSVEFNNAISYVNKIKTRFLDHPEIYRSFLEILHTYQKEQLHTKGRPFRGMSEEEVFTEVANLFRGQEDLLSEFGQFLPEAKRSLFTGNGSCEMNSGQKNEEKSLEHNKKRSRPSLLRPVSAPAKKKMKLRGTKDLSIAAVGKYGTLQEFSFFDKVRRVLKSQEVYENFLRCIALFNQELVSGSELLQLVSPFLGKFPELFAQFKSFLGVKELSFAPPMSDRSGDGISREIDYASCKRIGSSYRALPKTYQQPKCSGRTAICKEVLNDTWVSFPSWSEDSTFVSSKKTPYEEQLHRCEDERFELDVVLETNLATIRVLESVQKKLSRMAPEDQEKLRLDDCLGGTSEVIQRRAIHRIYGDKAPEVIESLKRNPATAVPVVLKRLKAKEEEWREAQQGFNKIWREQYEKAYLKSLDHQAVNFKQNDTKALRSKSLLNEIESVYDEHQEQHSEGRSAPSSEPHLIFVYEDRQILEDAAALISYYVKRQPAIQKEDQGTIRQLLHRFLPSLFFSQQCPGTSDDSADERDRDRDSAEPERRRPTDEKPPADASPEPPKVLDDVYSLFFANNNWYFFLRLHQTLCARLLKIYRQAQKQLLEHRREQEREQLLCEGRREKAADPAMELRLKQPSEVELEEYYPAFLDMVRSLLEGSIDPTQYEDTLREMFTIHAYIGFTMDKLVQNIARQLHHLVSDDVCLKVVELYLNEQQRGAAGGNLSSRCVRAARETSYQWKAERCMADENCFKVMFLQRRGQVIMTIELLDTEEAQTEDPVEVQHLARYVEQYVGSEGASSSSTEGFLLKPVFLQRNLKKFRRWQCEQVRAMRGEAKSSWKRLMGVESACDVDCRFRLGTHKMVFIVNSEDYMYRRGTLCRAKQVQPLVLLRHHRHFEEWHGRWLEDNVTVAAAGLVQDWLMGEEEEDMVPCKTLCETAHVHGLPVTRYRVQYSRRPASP
The experiment in a line: Inhibition of N-terminal GST-tagged mouse Sin3B PAH1 domain (28 to 107 residues) expressed in Escherichia coli BL21 (DE3) binding to NRSF/REST at 100 uM by 1H STD-NMR spectrometric analysis.

The target in assay [2] is T1, Paired amphipathic helix protein Sin3b (Mus musculus). The assay can be described thus: Binding affinity to N-terminal GST-tagged mouse Sin3B PAH1 domain (28 to 107 residues) expressed in Escherichia coli BL21 (DE3) assessed as chemical shift perturbations at 100 uM by 1H-15N HSQC titration analysis.
For assay [3], the system named is Mus musculus. The experiment in a line: Antinociceptive activity in partial sciatic nerve ligation C57BL/6J mouse model of neuropathic pain assessed as reduction in C-fiber stimulated hyposensitivity at 10 mg/kg, ip administered daily from day 5 to day 11 measured on day 12. Format: functional, organism-based.
Assay [4] has as its system Mus musculus. The experiment in a line: Antinociceptive activity in partial sciatic nerve ligation C57BL/6J mouse model of neuropathic pain assessed as reduction in peripheral morphine analgesia at 10 mg/kg, ip administered daily from day 5 to day 11 measured on day 12. In kind it is functional, organism-based.
Assay [5] relates to Mus musculus. The experiment in a line: Antinociceptive activity in intermittent cold stress treated partial sciatic nerve ligation C57BL/6J mouse model of fibromyalgia assessed as reversal of thermal hyperalgesia at 10 mg/kg, ip administered daily from day 5 to day 11 measured on day 12. In kind it is functional, organism-based.
The subject of assay [6] is Mus musculus. The experiment in a line: Antinociceptive activity in intermittent cold stress treated partial sciatic nerve ligation C57BL/6J mouse model of fibromyalgia assessed as reduction in central morphine analgesia at 10 mg/kg, ip administered daily from day 5 to day 11 measured on day 12. In kind it is functional, organism-based.
Assay [7] has as its system Mus musculus. The experiment in a line: Antinociceptive activity in intermittent psychological stress treated partial sciatic nerve ligation C57BL/6J mouse model of fibromyalgia assessed as reversal of thermal hyperalgesia at 10 mg/kg, ip administered daily from day 5 to day 11 measured on day 12. Format: functional, organism-based.
Assay [8] concerns Mus musculus. The assay can be described thus: Antinociceptive activity in intermittent psychological stress treated partial sciatic nerve ligation C57BL/6J mouse model of fibromyalgia assessed as reduction in central morphine analgesia at 10 mg/kg, ip administered daily from day 5 to day 11 measured on day 12. In kind it is functional, organism-based.
The test system of assay [9] is Mus musculus. The experiment in a line: Antinociceptive activity in partial sciatic nerve ligation C57BL/6J mouse model of neuropathic pain assessed as C-fiber stimulated paw withdrawal threshold at 10 mg/kg, ip measured on day 5 (reference value: 3 microA). In kind it is functional.
Assay [10] relates to Mus musculus. The assay can be described thus: Antinociceptive activity in partial sciatic nerve ligation C57BL/6J mouse model of neuropathic pain assessed as C-fiber stimulated paw withdrawal threshold at 10 mg/kg, ip measured on day 12 (reference value: 6 microA). In kind it is functional.
For assay [11], the system named is Mus musculus. The assay can be described thus: Antinociceptive activity in intermittent cold stress treated partial sciatic nerve ligation C57BL/6J mouse model of fibromyalgia assessed as paw withdrawal latency time at 10 mg/kg, ip measured on day 5 (reference value: 10 sec). In kind it is functional.
For assay [12], the system named is Mus musculus. The assay can be described thus: Antinociceptive activity in intermittent cold stress treated partial sciatic nerve ligation C57BL/6J mouse model of fibromyalgia assessed as paw withdrawal latency time at 10 mg/kg, ip measured on day 12 (reference value: 13 sec). Format: functional.
The test system of assay [13] is Mus musculus. The experiment in a line: Antinociceptive activity in intermittent psychological stress treated partial sciatic nerve ligation C57BL/6J mouse model of fibromyalgia assessed as paw withdrawal latency time at 10 mg/kg, ip measured on day 5 (reference value: 3 sec). In kind it is functional.
Assay [14] concerns Mus musculus. The assay can be described thus: Antinociceptive activity in intermittent psychological stress treated partial sciatic nerve ligation C57BL/6J mouse model of fibromyalgia assessed as paw withdrawal latency time at 10 mg/kg, ip measured on day 12 (reference value: 3 sec). Format: functional.
For assay [15], the system named is Mus musculus. The assay can be described thus: Antinociceptive activity in intermittent psychological stress treated partial sciatic nerve ligation C57BL/6J mouse model of fibromyalgia assessed as paw withdrawal latency time at 10 mg/kg, ip measured on day 19 (reference value: 3 sec). Format: functional.
Assay [16] has as its system Mus musculus. The assay can be described thus: Antinociceptive activity in intermittent psychological stress treated partial sciatic nerve ligation C57BL/6J mouse model of fibromyalgia assessed as paw withdrawal latency time at 10 mg/kg, ip measured on day 5 (reference value: 4 sec). In kind it is functional.
Assay [17] has as its system Mus musculus. The experiment in a line: Antinociceptive activity in intermittent psychological stress treated partial sciatic nerve ligation C57BL/6J mouse model of fibromyalgia assessed as paw withdrawal latency time at 10 mg/kg, ip measured on day 12 (reference value: 4 sec). Format: functional.
The test system of assay [18] is Mus musculus. The assay can be described thus: Antinociceptive activity in intermittent psychological stress treated partial sciatic nerve ligation C57BL/6J mouse model of fibromyalgia assessed as paw withdrawal latency time at 10 mg/kg, ip measured on day 19 (reference value: 4 sec). In kind it is functional.

The values that follow come from ChEMBL document CHEMBL4043232, “A mimetic of the mSin3-binding helix of NRSF/REST ameliorates abnormal pain behavior in chronic pain models” (2017).

Each structure is given as a SMILES string. Active and inactive are the calls of the source.

`CC[C@H]1ON(C(=O)OC(C)C)[C@H]2CN(CCC(C)C)C(=O)[C@H](CCSC)N2C1=O`: the inhibition entry in assay [1] is “Active”. Moreover, the result in assay [2], in assay [3], in assay [4], in assay [5], in assay [6] and in assay [7] was Active. For the same compound, the outcome in assay [8] was Active. Besides, the Activity in assay [9] is 3 microA; in assay [10] it was 6 microA. For the same compound, the Time in assay [11] was determined as 10 s; in assay [12], 13 s; in [13], 3 s; in assay [14], 3 s; in assay [15], 3 s; in assay [16], 4 s. Moreover, the Time in [17] and in assay [18] was 4 s in each case.

Regarding `CCCC[C@H]1C(=O)N(CCC(C)C)C[C@@H]2N(C(=O)OC(C)C)CC3(CCCCC3)C(=O)N21`, the inhibition result in assay [1] is “Active”.
